The values that follow come from patent US6465221B1, “Method of producing a taxane-type diterpene” (Mitsui Chemicals, Inc., priority 1994, dated 2002).

Holding throughout (type): cell-based
Assay [1] concerns cultured cells of Taxus baccata LINN. As to the kind of experiment: Taxus baccata cell culture with coronatines. As for the experimental part: A part of stem of Taxus baccata LINN which had been previously sterilized with 2% antiformin solution or 70% ethanol solution or the like, was placed on solid Woody Plant Medium (containing gelan gum of 0.25% by weight) to which naphthalenacetic acid had been added to give the concentration of 10^−5 M, and static culture was carried out at 25 ° C. in a dark place to provide callus of Taxus baccata LINN. One gram (fresh weight) of the callus was inoculated to an Erlenmeyer flask containing 20 ml of liquid Woody Plant Medium to which the above-mentioned component was added to give the same concentration and shake culture was carried out with a rotary shaker (amplification of 25 mm, 120 rpm) and the callus was subcultured in every 21 days to accelerate the growth rate thereof.
One gram (fresh weight) of the cultured cells thus obtained was inoculated to an Erlenmeyer flask containing 20 ml of liquid Woody Plant Medium to which the above-mentioned component was added to give the same concentration, and shake culture was carried out at 25° C. for 14 days. On the 14th day after starting the culture, 50 μl of coronatine [formula (IV)] was added as coronatines to the culture medium to give the final concentration of 0.001-1000 μM and the culture was further carried out for another 7 days.
After completing the culture, cultured cells of Taxus baccata LINN were harvested by filtration and lyophilized, then the dry weight was measured to obtain the yeild of the cultured cells per liter of the liquid medium.

For assay [2] the test system is unchanged. As to the kind of experiment: Taxus baccata cell culture with cyclic polysaccharides and methyl ester of jasmonic acid. The following applies: cyclic polysaccharide 10 mM + methyl ester of jasmonic acid 100 μM. As for the experimental part: […] After completing the culture, cultured cells of Taxus baccata LINN were harvested by filtration and lyophilized, then the dry weight was measured to obtain the yeild thereof per liter of the liquid medium.

Assay [3] has the same test system. Description: Taxus baccata cell culture with fatty acids or natural oil. The following applies: added fatty acid 100 μM; 14 days. As to the method: One gram (fresh weight) of the callus was inoculated to an Erlenmeyer flask containing 20 ml of liquid Woody Plant Medium and shake culture was carried out with a rotary shaker (amplification of 25 mm, 100 rpm) and the callus was subcultured in every 21 days to accelerate the growth rate thereof.

The mark [4] stands for this setting: concentration of coronatines 1 μM.
Setting [5] is: concentration of coronatines 10 μM.

`CCC1C=C(C(=O)NC(C(=O)O)C(C)C)C2CCC(=O)C2C1` (centres unmarked) [Example 8, N-coronafacoylvaline]: in assay [1] (setting [4]), the “yield of baccatin III” value worked out at 25.0 mg/L, the yield of cephalomannine is 9.2 mg/L, the “yield of cultured cells” value came to 18.1 g/L and the yield of taxol was found to be 51.1 mg/L.

As for `CC[C@H]1C=C(C(=O)N[C@@]2(C(=O)OC)C[C@@H]2CC)[C@H]2CCC(=O)[C@H]2C1` [Example 9, methyl ester of coronatine], in assay [1] (setting [4]), the “yield of baccatin III” value was found to be 4.6 mg/L, the yield of cephalomannine was 6.6 mg/L, the “yield of cultured cells” value was determined as 19.5 g/L and the yield of taxol was 11.3 mg/L.

As for `CCC1C=C(C(=O)O)C2CCC(=O)C2C1` (centres unmarked) [Example 10, coronafacic acid], in assay [1] (setting [5]), the “yield of baccatin III” value was found to be 12.4 mg/L, the yield of cephalomannine came to 3.0 mg/L, the “yield of cultured cells” value amounted to 18.6 g/L and the yield of taxol was found to be 6.2 mg/L.

As to `CC[C@H]1C=C(C(=O)OC)[C@H]2CCC(=O)[C@H]2C1` [Example 11, methyl ester of coronafacic acid], in assay [1] (setting [5]), the “yield of baccatin III” value came out at 8.4 mg/L, the yield of cephalomannine amounted to 5.1 mg/L and the “yield of cultured cells” value came out at 19.2 g/L.

On to `OC[C@H]1O[C@@H]2O[C@H]3[C@H](O)[C@@H](O)[C@@H](O[C@H]4[C@H](O)[C@@H](O)[C@@H](O[C@H]5[C@H](O)[C@@H](O)[C@@H](O[C@H]6[C@H](O)[C@@H](O)[C@@H](O[C@H]7[C@H](O)[C@@H](O)[C@@H](O[C@H]1[C@H](O)[C@H]2O)O[C@@H]7CO)O[C@@H]6CO)O[C@@H]5CO)O[C@@H]4CO)O[C@@H]3CO` [Example 23, α-cyclodextrin], for which, in assay [2], the “yield of baccatin III” value is 55.7 mg/L, the yield of cephalomannine turned out to be 7.5 mg/L, the “yield of cultured cells” value turned out to be 16.6 g/L and the yield of taxol was 46.0 mg/L.

As to `OC[C@H]1O[C@@H]2O[C@H]3[C@H](O)[C@@H](O)[C@@H](O[C@H]4[C@H](O)[C@@H](O)[C@@H](O[C@H]5[C@H](O)[C@@H](O)[C@@H](O[C@H]6[C@H](O)[C@@H](O)[C@@H](O[C@H]7[C@H](O)[C@@H](O)[C@@H](O[C@H]8[C@H](O)[C@@H](O)[C@@H](O[C@H]9[C@H](O)[C@@H](O)[C@@H](O[C@H]1[C@H](O)[C@H]2O)O[C@@H]9CO)O[C@@H]8CO)O[C@@H]7CO)O[C@@H]6CO)O[C@@H]5CO)O[C@@H]4CO)O[C@@H]3CO` [Example 24, γ-cyclodextrin], in assay [2], the “yield of baccatin III” value amounted to 85.2 mg/L, the yield of cephalomannine came out at 8.5 mg/L, the “yield of cultured cells” value was 17.5 g/L and the yield of taxol is 45.2 mg/L.

Turning to `CCCCCCCC/C=C\CCCCCCCC(=O)O` [Example 27, oleic acid], in assay [3], the yield of cells turned out to be 20 g/L; the “yield of taxane-type diterpenes, baccatin III” value amounted to 2 mg/L; the “yield of taxane-type diterpenes, cephalomannine” value stood at 4 mg/L; the “yield of taxane-type diterpenes, taxol” value came to 9 mg/L.

On to `CCCCC/C=C\C/C=C\CCCCCCCC(=O)O` [Example 28, linolic acid], for which, in assay [3], the yield of cells is 20 g/L; the “yield of taxane-type diterpenes, baccatin III” value amounted to 2 mg/L; the “yield of taxane-type diterpenes, cephalomannine” value turned out to be 5 mg/L; the “yield of taxane-type diterpenes, taxol” value stood at 7 mg/L.

Take `CCCCC/C=C\C/C=C\C/C=C\C/C=C\CCCC(=O)O` [Example 29, arachidonic acid]: in assay [3], the yield of cells came to 20 g/L; the “yield of taxane-type diterpenes, baccatin III” value was 2 mg/L; the “yield of taxane-type diterpenes, cephalomannine” value stood at 3 mg/L; the “yield of taxane-type diterpenes, taxol” value worked out at 6 mg/L.
